Experimental data published in patent publication US9463174B2, “Pharmaceutical composition for the treatment of type-1 diabetes” (priority 2008, dated 2016).

What was measured:
INS-1 cells = assay: GABA production and release from insulin-secreting beta-cells (Free Amino Acid Analysis); format: cell-based
Procedure: In these in vitro assays using GLP-1-secreting and/or insulin-secreting cells, it was shown that the production and secretion of GLP-1 in the gut-derived cells (STC-1) were modulated by GABA, and the production and release of GABA from the beta-cells were also modulated by GLP-1. The specificity of these assays was determined by including the GABAAR antagonists or GLP-1 receptor antagonist in the assays.
The Free Amino Acid Analysis was performed on a Waters Acquity UPLC System. The Waters Acquity UPLC system employed consists of a Binary Solvent Manager, a Sample Manager, a TUV Detector and a Waters Acquity UPLC BEH C18 column (2.1×100 mm). Data was collected, stored and processed using Waters Empower 2 Chromatography software. Drying was done using a Tomy CC-181 Centrifugal Concentrator with a Sargent-Welch Model 8821 Vacuum pump. The operational procedures are as following: an aliquot of the sample was transferred into a 6×55 mm glass culture tube and dried under vacuum using a centrifugal evaporator. After drying, the sample was treated with a redrying solution consisting of methanol:water:triethylamine (2:2:1), vortex-mixed and dried under vacuum for 15 minutes. […] The derivatized amino acids were detected at 254 nm.
GABA concentrations were determined by the Free Amino Acid Analysis. […]

T1D-prone NOD mice = settings: monotherapy, Hadjiyanni I et al 2008; cited from earlier work

Substance: GLP-1: incretin hormone glucagon-like peptide-1, SEQ ID NO: 1
- production and release of GABA from the beta-cells (INS-1 cells): modulated
- efficacy on diabetes onset in T1D-prone NOD mice (T1D-prone NOD mice): only marginally effective
